Measured values: patent publication US8242174B2 (priority 2007, dated 2012)

The molecules below were run against Lethal factor protease (Bacillus anthracis, UniProt P15917) (assay: biochemical).
Sequence of Lethal factor protease (P15917 34-809 limits assumed): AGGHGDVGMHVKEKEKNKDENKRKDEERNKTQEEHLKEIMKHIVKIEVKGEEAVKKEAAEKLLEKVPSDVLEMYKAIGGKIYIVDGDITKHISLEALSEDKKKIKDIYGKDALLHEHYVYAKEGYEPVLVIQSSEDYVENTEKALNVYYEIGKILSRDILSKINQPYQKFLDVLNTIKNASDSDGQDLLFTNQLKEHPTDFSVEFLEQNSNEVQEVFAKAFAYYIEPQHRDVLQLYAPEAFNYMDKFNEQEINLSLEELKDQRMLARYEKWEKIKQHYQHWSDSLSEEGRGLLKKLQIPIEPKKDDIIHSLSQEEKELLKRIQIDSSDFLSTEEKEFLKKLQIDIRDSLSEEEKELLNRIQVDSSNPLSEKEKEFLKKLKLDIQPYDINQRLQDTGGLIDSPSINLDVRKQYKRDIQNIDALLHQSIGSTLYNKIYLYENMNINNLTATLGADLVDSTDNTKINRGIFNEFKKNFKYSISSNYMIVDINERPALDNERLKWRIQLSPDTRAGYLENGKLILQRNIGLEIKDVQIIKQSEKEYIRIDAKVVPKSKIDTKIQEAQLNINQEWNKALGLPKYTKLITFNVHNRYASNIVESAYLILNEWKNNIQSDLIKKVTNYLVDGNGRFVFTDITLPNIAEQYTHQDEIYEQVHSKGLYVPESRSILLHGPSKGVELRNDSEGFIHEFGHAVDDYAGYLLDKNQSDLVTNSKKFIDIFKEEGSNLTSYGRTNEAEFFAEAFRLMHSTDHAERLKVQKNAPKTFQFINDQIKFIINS

SMILES	Ki
Cc1cc(N[C@H](CCCCNCc2cc3ccccc3o2)C(=O)NO)ccc1F [Compound 168166, (R)-6-[(Benzofuran-2-ylmethyl)-amino]-2-(4-fluoro-3-methyl-phenylamino)-hexanoic acid hydroxyamide]	180 nM
CCCC(CCC)CNCCCC[C@@H](Nc1ccc(F)c(C)c1)C(=O)NO [Compound 168167, (R)-2-(4-Fluoro-3-methyl-phenylamino)-6-(2-propyl-pentylamino)-hexanoic acid hydroxyamide]	250 nM
Cc1cc(N[C@H](CCCCNCc2cnccn2)C(=O)NO)ccc1F [Compound 168168, (R)-2-(4-Fluoro-3-methyl-phenylamino)-6-[(pyrazin-2-ylmethyl)-amino]-hexanoic acid hydroxyamide]	630 nM
Cc1cc(N[C@H](CCCCNCc2ccc(Cl)cc2)C(=O)NO)ccc1F [Compound 168181, (R)-6-(4-Chloro-benzylamino)-2-(4-fluoro-3-methyl-phenylamino)-hexanoic acid hydroxyamide]	190 nM
Cc1cc(N[C@H](CCCCNCc2ccc3sccc3c2)C(=O)NO)ccc1F [Compound 168182, (R)-6-[(Benzo[b]thiophen-5-ylmethyl)-amino]-2-(4-fluoro-3-methyl-phenylamino)-hexanoic acid hydroxyamide]	150 nM
